Measurements published in publication PMC9570594, “Development of Novel Pyridine-Thiazole Hybrid Molecules as Potential Anticancer Agents” (Molecules, 2022).

Tests used:
CCRF-CEM (Leukemia) = test: NCI five-dose SRB assay; format: cell-based; settings: Homo sapiens, 48 h
K-562 (Leukemia) = test: NCI five-dose SRB assay; format: cell-based; settings: Homo sapiens, K562, 48 h
SR (Leukemia) = test: NCI five-dose SRB assay; format: cell-based; settings: Homo sapiens, 48 h
[1] = tested on: HOP-92 (Non-Small Cell Lung Cancer); test: NCI five-dose SRB assay; format: cell-based; settings: Homo sapiens, 48 h
[2] = tested on: NCI-H226 (Non-Small Cell Lung Cancer); test: NCI five-dose SRB assay; format: cell-based; settings: Homo sapiens, 48 h
HCC-2998 (Colon Cancer) = test: NCI five-dose SRB assay; format: cell-based; settings: Homo sapiens, 48 h
[3] = tested on: Colon Cancer cell lines (MG_MID); test: NCI five-dose SRB assay; format: cell-based; settings: Homo sapiens, 48 h
SF-268 (CNS Cancer) = test: NCI five-dose SRB assay; format: cell-based; settings: Homo sapiens, 48 h
SF-295 (CNS Cancer) = test: NCI five-dose SRB assay; format: cell-based; settings: Homo sapiens, 48 h
SNB-19 (CNS Cancer) = test: NCI five-dose SRB assay; format: cell-based; settings: Homo sapiens, 48 h
[4] = tested on: CNS Cancer cell lines (MG_MID); test: NCI five-dose SRB assay; format: cell-based; settings: Homo sapiens, 48 h
LOX IMVI (Melanoma) = test: NCI five-dose SRB assay; format: cell-based; settings: Homo sapiens, 48 h
MALME-3M (Melanoma) = test: NCI five-dose SRB assay; format: cell-based; settings: Homo sapiens, 48 h
M14 (Melanoma) = test: NCI five-dose SRB assay; format: cell-based; settings: Homo sapiens, 48 h
MDA-MB-435 (Melanoma) = test: NCI five-dose SRB assay; format: cell-based; settings: Homo sapiens, 48 h
SK_MEL-5 (Melanoma) = test: NCI five-dose SRB assay; format: cell-based; settings: Homo sapiens, SK-MEL-5, 48 h
[5] = tested on: Melanoma cell lines (MG_MID); test: NCI five-dose SRB assay; format: cell-based; settings: Homo sapiens, 48 h
OVCAR-8 (Ovarian Cancer) = test: NCI five-dose SRB assay; format: cell-based; settings: Homo sapiens, 48 h
[6] = tested on: Ovarian Cancer cell lines (MG_MID); test: NCI five-dose SRB assay; format: cell-based; settings: Homo sapiens, 48 h
A498 (Renal Cancer) = test: NCI five-dose SRB assay; format: cell-based; settings: Homo sapiens, 48 h
RXF 393 (Renal Cancer) = test: NCI five-dose SRB assay; format: cell-based; settings: Homo sapiens, 48 h
TK-10 (Renal Cancer) = test: NCI five-dose SRB assay; format: cell-based; settings: Homo sapiens, 48 h
DU-145 (Prostate Cancer) = test: NCI five-dose SRB assay; format: cell-based; settings: Homo sapiens, 48 h
[7] = tested on: Prostate Cancer cell lines (MG_MID); test: NCI five-dose SRB assay; format: cell-based; settings: Homo sapiens, 48 h
MCF-7 (Breast Cancer) = test: NCI five-dose SRB assay; format: cell-based; settings: Homo sapiens, MCF7, 48 h
[8] = tested on: MDA-MB-468 (Breast Cancer); test: NCI five-dose SRB assay; format: cell-based; settings: Homo sapiens, 48 h
[9] = tested on: MCF-7 breast cancer cells; test: Soft agar drug sensitivity assay; format: cell-based, human; settings: MCF-7, 1 and 5 µM, day 12
Method: It was proposed that testing of drugs in a 3-dimensional (3D) format, such as soft agar, is more similar to the in vivo cellular microenvironment and the results of such testing have a good correlation with in vivo conditions.
Five hundred MCF-7 breast cancer cells in 0.5% sterile agar (Bacto-Agar, Difco Laboratories) were layered on a preformed 0.8% sterile agar layer using 24 well plate (CytoONE, STARLAB International GmbH, Hamburg, Germany). The cells in agar were treated with the compound 4 at concentrations of 1 and 5 µM/mL. Doxorubicin was used as a positive control. The 0.5% agar layer included DMEM medium containing 10% FBS, cells, and tested compounds. The 0.8% agar layer included DMEM medium. Colonies with a size of >50 µm were counted under the microscope and photographed after 12 days.

MCF-7 cells = test: Chemical synthetic lethality: MTT after preincubation with BRCA1 inhibitor Bractoppin; format: cell-based; settings: Homo sapiens, MCF7; MCF-7, 30 min preincubation with Bractoppin, 72 h MTT; read-out: IC50 in the case of BRCA1 inhibition
Colo 205 (Colon Cancer) = test: NCI one-dose SRB assay; settings: 10 μM, 48 h
HCT-15 (Colon Cancer) = test: NCI one-dose SRB assay; settings: 10 μM, 48 h
Method: (§1) Tested compounds were added to the culture at a single concentration (10^−5 M) and the cultures were incubated for 48 h. End point determinations were made with a protein binding dye, Sulphorhodamine B (SRB). […] The percentage growth was evaluated spectrophotometrically versus controls not treated with test agents.

HT29 (Colon Cancer) = test: NCI one-dose SRB assay; settings: 10 μM, 48 h
Method: as §1

SF-539 (CNS Cancer) = test: NCI one-dose SRB assay; settings: 10 μM, 48 h
Method: A primary anticancer assay was performed on a panel of approximately sixty human tumor cell lines derived from nine neoplastic diseases, in accordance with the protocol of the Drug Evaluation Branch, National Cancer Institute, Bethesda [31, 32, 33, 34, 35]. Tested compounds were added to the culture at a single concentration (10^−5 M) and the cultures were incubated for 48 h. End point determinations were made with a protein binding dye, Sulphorhodamine B (SRB). […] The percentage growth was evaluated spectrophotometrically versus controls not treated with test agents.

SK Mel-2 (Melanoma) = test: NCI one-dose SRB assay; settings: 10 μM, 48 h
HCT-116 (colon) = test: MTT assay of cell viability; settings: Homo sapiens, HCT-116, 72 h, HCT-116; 72 h of incubation, M ± SD
[10] = tested on: HCT-116 p53 (−/−) colon cancer cells; test: MTT assay of cell viability; settings: Homo sapiens, HCT-116, 72 h
Description: The cell lines used in our work were kindly provided by a Collection at the Institute of Molecular Biology and Genetics, National Academy of Sciences of Ukraine (Kyiv, Ukraine).

MCF-7 (breast) = test: MTT assay of cell viability; settings: Homo sapiens, MCF7, 72 h, MCF-7; 72 h of incubation, M ± SD
[11] = tested on: murine macrophages of J774.2 line; test: MTT assay of cell viability; settings: Mus musculus, J774.2, 72 h
[12] = tested on: human epidermal keratinocytes of HaCaT line; test: MTT assay of cell viability; settings: 72 h

Compound: CCOC(=O)c1ccc(NC(=O)CSC(CC(=O)c2sc(Nc3ccccn3)nc2C)c2ccccc2F)cc1 (centres unmarked) [Compound 4, Ethyl 4-[[2-[1-(2-Fluorophenyl)-3-[4-methyl-2-(2-pyridylamino)thiazol-5-yl]-3-oxopropyl]sulfanylacetyl]amino]benzoate]
- GI50 (CCRF-CEM (Leukemia)): 18.6 µM
- GI50 (K-562 (Leukemia)): 30.4 µM
- GI50 (SR (Leukemia)): 24.1 µM
- GI50 [1]: 12.5 µM
- GI50 [2]: 2.52 µM
- GI50 (HCC-2998 (Colon Cancer)): 23.1 µM
- GI50 [3]: 51.6 µM
- GI50 (SF-268 (CNS Cancer)): 43.1 µM
- GI50 (SF-295 (CNS Cancer)): 32.2 µM
- GI50 (SNB-19 (CNS Cancer)): 36.9 µM
- GI50 [4]: 32.7 µM
- GI50 (LOX IMVI (Melanoma)): 0.312 µM
- GI50 (MALME-3M (Melanoma)): 25.4 µM
- GI50 (M14 (Melanoma)): 19.4 µM
- GI50 (MDA-MB-435 (Melanoma)): 26.3 µM
- GI50 (SK_MEL-5 (Melanoma)): 18.6 µM
- GI50 [5]: 25.3 µM
- GI50 (OVCAR-8 (Ovarian Cancer)): 53.6 µM
- GI50 [6]: 41.1 µM
- GI50 (A498 (Renal Cancer)): 69.2 µM
- GI50 (RXF 393 (Renal Cancer)): 2.59 µM
- GI50 (TK-10 (Renal Cancer)): 82.3 µM
- GI50 (DU-145 (Prostate Cancer)): 67.2 µM
- GI50 [7]: 45.5 µM
- GI50 (MCF-7 (Breast Cancer)): 15.4 µM
- GI50 [8]: 4.24 µM
- size and number of colonies in soft agar [9]: reduces the size and number of colonies
- IC50 (MCF-7 cells): 0.7 µM
- Growth % (Colo 205 (Colon Cancer)): −34.08%
- Growth % (HCT-15 (Colon Cancer)): −42.04%
- Growth % (HT29 (Colon Cancer)): −28.32%
- Growth % (SF-539 (CNS Cancer)): −27.26%
- Growth % (SK Mel-2 (Melanoma)): −31.22%
- IC50 (HCT-116 (colon)): 6.11 ± 0.24 µM
- IC50 [10]: 3.43 ± 0.9 µM
- IC50 (MCF-7 (breast)): 2.79 ± 1.31 µM
- IC50 [11]: > 50 µM
- IC50 [12]: > 50 µM
